We go through three compounds from patent US9296778B2, “3′,5′-cyclic phosphate prodrugs for HCV infection” (Idenix Pharmaceuticals, Inc., priority 2012, dated 2016).

One series concerns HCV genotype 1b replicon. Briefly: HCV Replicon Assay. It is filed as cell-based. As to conditions: Hepatitis C virus, 72 h, read-out: HCV Replicon EC50. An outline of the steps:
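Zluc Huh-7 cells with HCV genotype 1b replicon and luciferase reporter treated with 5-fold dilutions (100 μM to 0.0000512 μM final) in duplicate, or at 1 and 10 μM. Luminescence read with ONE-glo; EC50 from dose-response fits, or % inhibition at the fixed concentrations.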
For orientation: A replicon is a self-replicating genome or part of one, used to study replication in cells.

The nature of series [1]: cytotoxicity evaluation (CellTiter-Blue Cell Viability Assay). As to conditions: human.
In the next series the test system is Huh-7 cells. The experiment in a line: Release of active metabolite in Huh-7 cells. It is filed as in vitro ADME, human. The following applies: Huh-7 cells, AUC0-72. How it is done: Huh-7 cells were plated in 1 mL culture medium (DMEM, containing glucose, L-glutamine and sodium pyruvate, 10% FBS, 100 IU/mL penicillin, 100 μg/mL streptomycin, 2 mM GlutaMAX, 1% MEM non-essential amino acids) at the concentration 0.8, 0.4 and 0.2 million cells per well on 6 well plates for 24, 48 and 72 hr treatment, respectively. Plated cells were incubated overnight at 37° C. in an incubator.
The following morning compounds was diluted to 20 μM from a stock solution in DMSO in fresh culture medium pre-warmed to 37° C. and 1 mL of the solution/well was added to cells. A final medium volume per well was 2.0 mL, Compound concentration in well was 10 μM and final DMSO concentration was 0.1%.
After 24, 48 or 72 hr, the medium was carefully removed and cell monolayers were washed twice with 2 mL ice-cold PBS per well. Following the last wash, all PBS was carefully removed and 1.0 mL of extraction solution (ice-cold 70% methanol) added. The plate was tightly covered with Parafilm, plastic plate cover and Parafilm again and an intracellular content was extracted at −20° C. for 24 hr.
After 24 hr extracts were transferred into polypropylene microfuge tubes and dried on a refrigerated centrivap concentrator. Dry residues were reconstituted in 250 μL of HPLC-grade water and centrifuged at 16,000×g for 10 min. Aliquots (100 μL each) of the supernatants were transferred into a 96 well plate and internal standard (4 ng/mL final concentration) was added as the internal standard (IS) for LC-MS/MS analysis.

The target of a further series is T1, cathepsin A (CatA) (Homo sapiens, UniProt P10619).
T1 construct: purchased R & D Systems (Minneapolis, Minn.)
T1 sequence (P10619 29-326 limits assumed): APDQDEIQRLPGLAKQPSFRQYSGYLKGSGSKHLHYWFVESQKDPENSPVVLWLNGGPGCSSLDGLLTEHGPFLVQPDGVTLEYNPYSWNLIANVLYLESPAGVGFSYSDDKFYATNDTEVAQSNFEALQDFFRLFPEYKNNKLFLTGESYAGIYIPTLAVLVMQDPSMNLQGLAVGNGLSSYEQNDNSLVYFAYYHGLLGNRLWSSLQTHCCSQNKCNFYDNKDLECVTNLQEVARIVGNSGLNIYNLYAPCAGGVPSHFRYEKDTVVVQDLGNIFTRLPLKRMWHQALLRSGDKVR
T1 sequence (P10619 327-480 limits assumed): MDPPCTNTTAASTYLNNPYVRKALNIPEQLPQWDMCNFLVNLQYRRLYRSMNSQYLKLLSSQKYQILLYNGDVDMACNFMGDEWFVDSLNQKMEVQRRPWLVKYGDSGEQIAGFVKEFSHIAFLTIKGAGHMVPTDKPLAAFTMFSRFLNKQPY
Briefly: CatA hydrolysis assay. It is filed as in vitro ADME. The following applies: for CatA hydrolysis: 100 μM compound, 37° C., 18 h. Here is the method:
CatA, cathepsin L (CatL) and CES1 were purchased from R & D Systems (Minneapolis, Minn.). Prior to the enzymatic hydrolysis reactions, CatA was activated according to the manufacturer's instruction. Briefly, CatA (0.05 μg/μL) was incubated with CatL (0.005 μg/μL) for 30 min at 37° C. in 25 mM MES pH 6.0 containing 5 mM DTT. The reaction was stopped by addition of the CatL specific inhibitor E64 (10 μM).
The CatA assay was performed at 37° C. The reaction mixture contained 25 mM MES buffer pH 6.0, 100 mM NaCl, 4 mM DTT and 100 μM of the compound. The reaction was started by addition of the activated CatA enzyme to a final concentration of 0.005 μg/μL. One hundred-μL aliquots were taken after 0.5 min, 3 hrs and 18 hrs of incubation. Reactions were stopped by mixing the sample with an equal volume of ice-cold methanol, and were loaded on a HPLC for analysis.
(§1) Samples were analyzed by HPLC using 5μ C-18, 4.6×250 mm Phenomenex® Columbus column (Phenomenex USA, CA). The mobile phase consisted of buffer A (25 mM potassium phosphate with 5 mM tetrabutylammonium dihydrogen phosphate pH 6.3) and buffer B (100% methanol).

The target in series [2] is T2, carboxylesterase 1 (CES1) (Homo sapiens, UniProt P23141).
T2 construct: purchased R & D Systems (Minneapolis, Minn.)
T2 sequence (P23141 18-567): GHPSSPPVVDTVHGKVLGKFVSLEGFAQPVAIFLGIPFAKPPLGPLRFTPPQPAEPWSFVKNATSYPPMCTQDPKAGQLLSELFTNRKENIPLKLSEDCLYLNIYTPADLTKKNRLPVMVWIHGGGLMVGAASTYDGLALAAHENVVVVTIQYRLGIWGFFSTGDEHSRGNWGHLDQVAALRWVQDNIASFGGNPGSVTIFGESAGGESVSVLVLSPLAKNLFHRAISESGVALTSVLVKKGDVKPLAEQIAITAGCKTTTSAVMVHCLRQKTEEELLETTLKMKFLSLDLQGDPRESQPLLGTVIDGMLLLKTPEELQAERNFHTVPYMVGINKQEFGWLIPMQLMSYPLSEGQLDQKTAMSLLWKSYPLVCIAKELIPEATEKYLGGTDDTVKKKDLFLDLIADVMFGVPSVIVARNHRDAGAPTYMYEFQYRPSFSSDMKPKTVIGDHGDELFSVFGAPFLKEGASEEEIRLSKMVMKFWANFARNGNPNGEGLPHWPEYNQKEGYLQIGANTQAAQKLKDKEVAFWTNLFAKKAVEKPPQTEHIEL
Briefly: CES1 hydrolysis assay. It is filed as in vitro ADME. As to conditions: for CES1 hydrolysis: 100 μM compound, 37° C. Here is the method: CES1 assay was performed at 37° C. in the reaction mixture containing 50 mM Tris/HCl buffer pH 7.5 and 100 μM of the compound. Reaction was started by addition of the CES1 to the final concentration 0.01 μg/mL. 100 μL aliquots were taken after 0.5 min, 3 hrs and 21 hrs of the incubation and the reaction was stopped by mixing with 100 μl of the ice-cold methanol prior to HPLC analysis.
as §1

The subject of a further series is genotype 1b HCV replicon. The experiment in a line: genotype 1b HCV replicon-bearing Huh-7 cells (Table 5). The class given is cell-based. An excerpt:
In vivo Z4 and Z2 appear to be effectively liver-targeted with a high liver:plasma ratio of drug metabolites. Both prodrugs are readily converted to the triphosphate (TP) metabolite in the liver of mice and monkey producing more TP than GS-7977. […] The in vitro antiviral inactivity of Z4 and Z2 is thought to reflect an inability of Huh-7 replicon cells to metabolize the prodrug moiety.

A further series in a line: Liver TP (Table 5). The class given is in vivo.

Like-named read-outs stand apart in the source and are kept apart here.

One may read the EC50 as the concentration at which the effect is half-maximal. The term CC50 denotes the concentration at which the toxic effect on the cells reaches its halfway point. For the compound `CCOc1nc(N)nc2c1ncn2[C@@H]1O[C@@H]2COP(=O)(Oc3ccc(C[C@H](NC(=O)OC)C(=O)OC(C)C)cc3)O[C@H]2[C@@]1(C)F` (some centres unmarked) [Compound 13], the concentration for a half-maximal effect (EC50) in the series with HCV genotype 1b replicon was less than 250 nM. This compound returned a CC50 in series [1] of more than 50000 nM.

With `CC(C)OC(=O)[C@H](C)N[P@](=O)(OC[C@H]1O[C@@H](n2ccc(=O)[nH]c2=O)[C@](C)(F)[C@@H]1O)Oc1ccccc1` [GS-7977], the “Huh-7 AUC0-72” value with Huh-7 cells came to 63555 pmol * hr/10^6cells. Also, at cathepsin A (CatA), the “hydrolysis by CatA (in words)” value was “hydrolyzed” and the CatA hydrolysis is 100% @ 18 h. Moreover, on cathepsin A (CatA) (GS-7977 (SP) versus its RP diastereoisomer), the “CatA cleavage efficiency relative to RP diastereoisomer” value amounted to 10 times. For the same compound, the “hydrolysis by CES1 (in words)” value in series [2] is reported as “hydrolyzed”. Moreover, in series [2] (3 h), the CES1 hydrolysis is reported as 12%/3 h;. Besides, the CES1 hydrolysis in series [2] (21 h) came out at 15%/21 h. In the series with genotype 1b HCV replicon (Hepatitis C virus), this compound showed an EC50 of 250 nM.

`CC(C)OC(=O)[C@H](C)N[P@@](=O)(OC[C@H]1O[C@@H](n2ccc(=O)[nH]c2=O)[C@](C)(F)[C@@H]1O)Oc1ccccc1` [PSI-7976]: the “Huh-7 AUC0-72” value with Huh-7 cells is reported as 6527 pmol * hr/10^6cells. This compound also came in with a CatA hydrolysis at cathepsin A (CatA) of 10% @ 18 h. Moreover, the “hydrolysis by CES1 (in words)” value in series [2] is recorded as “preferentially hydrolyzed”. The CES1 hydrolysis in series [2] (3 h) was 56%/3 h;; in series [2] (21 h) it was 94%/21 h. Further, it took 2080 nM to reach a half-maximal effect in the series with genotype 1b HCV replicon (EC50). The “Liver TP” value in the series “Liver TP (Table 5)” turned out to be 310 pmol·h/g.
